The target in data set [1] is Sodium-dependent serotonin transporter (Rattus norvegicus, UniProt P31652). The data set can be described thus: biochemical.
Description: Displacement of [3H]citalopram from SERT in Sprague-Dawley rat whole brain membranes after 1 hr by liquid scintillation spectrophotometric analysis
Data set [2] deals with T1, 5-hydroxytryptamine receptor 2C (Rattus norvegicus, UniProt P08909).
T1 sequence (P08909 whole entry): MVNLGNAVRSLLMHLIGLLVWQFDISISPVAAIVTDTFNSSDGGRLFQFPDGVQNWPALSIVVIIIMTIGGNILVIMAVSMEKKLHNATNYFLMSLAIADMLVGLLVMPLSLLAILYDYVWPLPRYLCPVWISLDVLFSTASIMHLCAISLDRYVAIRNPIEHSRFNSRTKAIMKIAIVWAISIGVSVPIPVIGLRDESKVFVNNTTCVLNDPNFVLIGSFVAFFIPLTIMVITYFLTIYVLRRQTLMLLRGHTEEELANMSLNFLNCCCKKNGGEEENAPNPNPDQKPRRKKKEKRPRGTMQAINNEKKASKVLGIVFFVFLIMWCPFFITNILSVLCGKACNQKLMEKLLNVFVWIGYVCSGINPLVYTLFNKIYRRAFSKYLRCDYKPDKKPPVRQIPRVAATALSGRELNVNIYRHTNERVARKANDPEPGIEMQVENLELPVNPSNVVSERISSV
The data set can be described thus: biochemical.
Description: Displacement of [3H]mesulergine from 5-HT2C receptor in Sprague-Dawley rat choroid plexus membranes after 30 mins by liquid scintillation spectrophotometric analysis

Data set [3] concerns the target Sodium-dependent serotonin transporter (Rattus norvegicus) (UniProt P31652). The data set can be described thus: Displacement of [3H]citalopram from SERT in Sprague-Dawley rat whole brain membranes at 300 nM after 1 hr by liquid scintillation spectrophotometric analysis relative to control. Format: tissue-based. The note with it: Membrane. A general note: Loss of bound radioactivity is the signal in a displacement assay; it reports binding, not function.

Data set [4] in a line: Apparent permeability from apical to basolateral side in vinblastine-treated human Caco2 cells at 3 to 50 uM. As to conditions: Caco-2. Format: ADME, cell-based. Background: Caco-2 monolayers are a common model of the intestinal barrier.
A further data set has as its system Liver microsome. The data set can be described thus: Intrinsic clearance in human liver microsomes measured per gram of tissue at 2.5 uM after 20 mins. The format is ADME. On the technique in general: Liver microsomes are vesicles of endoplasmic reticulum, rich in cytochrome P450 enzymes.
Another data set can be described thus: in vitro. As to conditions: human, Caco-2.
The next data set relates to Liver. The data set can be described thus: Intrinsic clearance in mouse liver microsomes measured per gram of tissue at 2.5 uM after 20 mins. The format is ADME.
Data set [5] deals with T2, 5-hydroxytryptamine receptor 2C (Rattus norvegicus) (UniProt P08909).
T2 sequence (whole entry): T1 sequence (P08909 whole entry)
The data set can be described thus: Displacement of [3H]mesulergine from 5-HT2C receptor in Sprague-Dawley rat choroid plexus membranes at 1000 nM after 30 mins by liquid scintillation spectrophotometric analysis relative to control. The note with it: Membrane.

Chain of Sodium-dependent serotonin transporter (P31652 whole entry): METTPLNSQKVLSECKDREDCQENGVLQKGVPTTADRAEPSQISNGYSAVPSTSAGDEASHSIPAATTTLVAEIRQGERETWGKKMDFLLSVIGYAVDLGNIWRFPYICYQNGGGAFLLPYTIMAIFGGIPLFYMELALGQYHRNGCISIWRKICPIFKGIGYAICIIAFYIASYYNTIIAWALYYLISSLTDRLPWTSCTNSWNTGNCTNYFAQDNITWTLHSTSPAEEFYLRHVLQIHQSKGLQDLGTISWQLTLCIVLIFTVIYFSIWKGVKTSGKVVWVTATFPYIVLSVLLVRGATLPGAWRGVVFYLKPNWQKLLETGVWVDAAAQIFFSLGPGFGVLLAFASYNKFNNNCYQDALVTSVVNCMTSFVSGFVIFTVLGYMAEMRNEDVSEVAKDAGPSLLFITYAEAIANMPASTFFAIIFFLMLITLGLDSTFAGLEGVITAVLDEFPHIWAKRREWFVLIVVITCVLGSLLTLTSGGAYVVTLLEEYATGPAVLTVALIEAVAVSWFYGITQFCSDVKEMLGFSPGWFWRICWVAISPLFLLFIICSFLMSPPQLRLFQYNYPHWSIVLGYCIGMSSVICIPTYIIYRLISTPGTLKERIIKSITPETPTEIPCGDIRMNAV
Chain of Sodium-dependent serotonin transporter (Rattus norvegicus) (P31652 whole entry): as above
Description for in vitro: Efflux ratio of apparent permeability from basolateral to apical over apical to basolateral side in vinblastine-treated human Caco2 cells at 3 to 50 uM

Usually Ki stands for a measure of affinity in units of concentration, obtained from inhibition or displacement. Turning to `Cn1ccc2cc(NC(=O)Nc3cccnc3)ccc21`, the Ki in data set [1] is > 10000 nM; in data set [2], 124 nM.
For orientation: inhibition means the change of the read-out against control, counted positive when it falls. Turning to `CSc1ccc(NC(=O)Nc2ccc(OC(CCN(C)C)c3ccccc3)cc2)cc1C(F)(F)F` (centres undefined), the inhibition in data set [3] came to 31%. In data set [2], this compound gave a Ki of 3.4 nM.
A word on the Papp A→B: it is the apparent permeability from the apical to the basolateral side of a cell layer. For orientation: efflux ratio means a quotient of directional permeabilities that is used to spot active efflux. For the compound `CN(C)CCC(Oc1ccc(NC(=O)c2ccc(Cl)c(Cl)c2)cc1)c1ccccc1` (centres undefined), the apparent permeability from apical to basolateral (Papp A→B) at 50 µM in data set [4] was 11.3 ×10⁻⁶ cm/s. The compound further came in with a CLH with Liver microsome of 0.65 mL/min. Also, the Ki in data set [1] stood at 65.3 nM; in data set [2], 57.1 nM. Further, in the data set “in vitro”, the efflux ratio at 50 µM worked out at 1.1.
The like results for `Cc1ccc(C(=O)Nc2ccc(OC(CCN(C)C)c3ccccc3)cc2)cc1Cl` (centres undefined) were, in that order, 19.9 ×10⁻⁶ cm/s, 0.59 mL/min, 34.6 nM, 45.3 nM and 0.7.
In the case of `CN(C)CCC(Oc1ccc(NC(=O)Nc2ccc(Cl)c(Cl)c2)cc1)c1ccccc1` (centres undefined), the inhibitory constant (Ki) in data set [1] was 135 nM; in data set [2], 2.9 nM.
`CN(C)CCC(Oc1cccc(NC(=O)Nc2ccc3ccccc3c2)c1)c1ccccc1` (centres undefined): the figures for the inhibition constant Ki in data set [1] and in data set [2] were 28.2 nM and 87.6 nM, respectively.
Consider `CN(C)CCC(Oc1cccc(NC(=O)Nc2ccc3c(ccn3C)c2)c1)c1ccccc1` (centres undefined), for which the inhibition constant Ki worked out at 9.4 nM in data set [1] and 652 nM in data set [2].
Turning to `Cc1ccc(NC(=O)Nc2ccc(OC(CCN(C)C)c3ccccc3)cc2)cc1Cl` (centres undefined), the CLH in the data set with Liver came out at 0.9 mL/min; in the data set with Liver microsome, 0.06 mL/min. For the same compound, the Ki in data set [1] worked out at 61.4 nM; in data set [2], 0.6 nM.
With `CN(C)CCC(Oc1ccc(NC(=O)Nc2ccc3ccn(C)c3c2)cc1)c1ccccc1` (centres undefined), the Ki in data set [1] was 19.3 nM; in data set [2] it was 10.9 nM.
With `CN(C)CCC(Oc1ccc(NC(=O)Nc2ccc3nccn3c2)cc1)c1ccccc1` (centres undefined), the inhibition in data set [5] turned out to be 53%. In data set [1], the Ki was found to be 4 nM.
For the compound `CN(C)CCC(Oc1ccc(N2CCN(c3ccc(Cl)c(Cl)c3)C2=O)cc1)c1ccccc1` (centres undefined), the values for the inhibition constant (Ki) in data set [1] and in data set [2] were 102 nM and 10.2 nM, respectively.
Turning to `COc1cc(NC(=O)Nc2ccc(Cl)c(Cl)c2)ccc1OC(CCN(C)C)c1ccccc1` (centres undefined), the inhibition in data set [3] is 38%. Besides, in data set [2], the Ki amounted to 2.8 nM.
As for `CN(C)CCC(Oc1ccc(NC(=O)Nc2ccc3c(ccn3C)c2)cc1)c1ccccc1` (centres undefined), in data set [4], the Papp A→B at 50 µM was 5.8 ×10⁻⁶ cm/s. For the same compound, the results for the inhibition constant Ki in data set [1] and in data set [2] were 9 nM and 15.9 nM, respectively. The efflux ratio at 50 µM in “in vitro” is 5.3.
On to `COc1ccc(C(=O)Nc2ccc(OC(CCN(C)C)c3ccccc3)cc2)cc1Cl` (centres undefined), for which the Ki came out at 15.9 nM in data set [1] and 152 nM in data set [2].
Turning to `CN(C)CCC(Oc1ccc(NC(=O)Nc2ccc3ccccc3c2)cc1)c1ccccc1` (centres undefined), in the data set with Liver, the CLH is 0.03 mL/min. The Ki in data set [1] was found to be 62 nM; in data set [2], 1.7 nM.
Turning to `COc1cc(NC(=O)Nc2ccc(OC(CCN(C)C)c3ccccc3)cc2)ccc1Cl` (centres undefined), the Ki in data set [1] worked out at 31 nM; in data set [2] it was 16.3 nM.
With `CN(C)CCC(Oc1ccc(NC(=O)Nc2ccc3c(ccn3C)c2)cn1)c1ccccc1` (centres undefined), the inhibition in data set [5] was 7%; in data set [3], -5%.
In the case of `CCn1ccc2cc(NC(=O)Nc3ccc(OC(CCN(C)C)c4ccccc4)cc3)ccc21` (centres undefined), the results for the inhibition constant Ki in data set [1] and in data set [2] were 37.9 nM and 10.7 nM, respectively.
For the compound `CN(C)CCC(Oc1ccc(NC(=O)N(C)c2ccc(Cl)c(Cl)c2)cc1)c1ccccc1` (centres undefined), the values for the Ki in data set [1] and in data set [2] were 89.6 nM and 78.9 nM, respectively. The efflux ratio at 50 µM in the data set “in vitro” worked out at 1.6.
On to `COc1ccc(NC(=O)Nc2ccc(OC(CCN(C)C)c3ccccc3)cc2)cc1C(F)(F)F` (centres undefined), for which the inhibition constant (Ki) in data set [1] is 96.4 nM; in data set [2], 3.3 nM.
As to `CN(C)CCC(Oc1ccc(NC(=O)Nc2ccc3ccn(C)c3c2)cn1)c1ccccc1` (centres undefined), the inhibition is 15% in data set [5] and 1% in data set [3].
As to `COc1ccc(C(=O)Nc2ccc(OC(CCN(C)C)c3ccccc3)cc2)cc1C(F)(F)F` (centres undefined), the inhibitory constant (Ki) is 22.3 nM in data set [1] and 90.6 nM in data set [2].
Turning to `O=C(Nc1cccnc1)Nc1ccc2ccccc2c1`, the figures for the inhibition constant Ki in data set [1] and in data set [2] were > 10000 nM and 6.2 nM, respectively.
For the compound `COc1ccc(NC(=O)Nc2ccc(Cl)c(Cl)c2)cc1OC(CCN(C)C)c1ccccc1` (centres undefined), the inhibition in data set [3] is -9%. In data set [2], this compound had an inhibition constant (Ki) of 197 nM.
As for `Cc1ccc(NC(=O)Nc2ccc(OC(CCN(C)C)c3ccccc3)cc2)cc1I` (centres undefined), the results for the Ki in data set [1] and in data set [2] were 121 nM and 2.4 nM, respectively.
With `CN(C)CCC(Oc1ccc(NC(=O)Nc2ccc3ccccc3c2)cn1)c1ccccc1` (centres undefined), the inhibition in data set [5] came to 43%; in data set [3], 3%.
As for `COc1ccc(NC(=O)Nc2ccc(OC(CCN(C)C)c3ccccc3)cc2)cc1Cl` (centres undefined), the Papp A→B at 50 µM in data set [4] turned out to be 7.5 ×10⁻⁶ cm/s. The CLH in the data set with Liver microsome came out at 0.68 mL/min. In addition, the Ki in data set [1] turned out to be 41.1 nM; in data set [2], 11.2 nM. Further, the efflux ratio at 50 µM in “in vitro” came out at 2.2.

These data come from ChEMBL document CHEMBL3259720, “Design of novel multiple-acting ligands towards SERT and 5-HT2C receptors” (Bioorg Med Chem Lett, 2014).
